In general, viability refers to a per cent measure of how many cells are alive, often set against a control. A high value points to less harm to the cells.

Each structure is given as a SMILES string. Read-outs that look alike come from different tables or passages of the source.

Assay type in all cases: cell-based, murine
For data set [1], the system named is NO production in LPS-activated BV-2 cells. The experiment in a line: Nitrite (Griess) assay of NO production in LPS-activated BV-2 cells. The note with it: Mus musculus, read-out: IC50, concentration that caused 50% inhibition of NO production in LPS-activated BV-2 cells. The procedure: (§1) […] or MTT assay was performed as described by our previous publication with slight modification. In order to measure MTT and NO production, BV-2 cells were plated into a 96-well plate at a density of 4 × 10^4 cells/well. […] Then, nitrite (a soluble oxidation product of NO) was detected in the culture media by using the Griess reaction. The supernatant (50 µL) was collected and mixed with an equal volume of Griess reagent (1% sulfanilamide in phosphoric acid and 0.1% N-1-napthylethylenediamine dihydrochloride). The absorbance was measured at 570 nm by using a microplate reader. Sodium nitrite was used to create a standard curve from which the NO2 concentration was calculated. The cell viability was evaluated by spectrophotometrically measuring the reduction of yellow 3-[4,5-dimethylthiazol-2-yl]-2,5-diphenyltetrazolium bromide (MTT) to purple formazan crystals. MTT was dissolved in DMEM, added to the culture plate containing cells at a final concentration of 0.5 mg/mL, and incubated for 1 h. The medium containing the MTT solution was carefully removed, and 200 µL DMSO was added to each well. After solubilizing the stained cells to produce a formazan-colored solution, the optical density (OD) was measured on a microplate reader at 570 nm, and the results were expressed as a percentage of the LPS-treated group. The same plate was used for the NO and MTT assays. The cell supernatant was used for the NO assay, and the plated cells were used for the MTT assay.
(§2) The NO production and cell viability of LPS-activated BV-2 cells were measured after treatment with azine derivatives using Griess reagent and MTT assay, respectively.

Data set [2] can be described thus: MTT cell viability of LPS-activated BV-2 cells. Particulars: mouse, LPS-activated BV-2 microglial cells; 20 µM compound; percentage of the LPS-only treatment group; mean ± standard deviation, three experiments. The protocol: as §1, §2
The next data set concerns BV-2 cells. Description: MTT cell viability of LPS-activated BV-2 cells. The procedure:
as §1, §2

Where [3] appears, read: BV-2, 100 ng/mL LPS, 24 h, Griess reaction.

Regarding `COc1ccc(/C=C/C=NN=C/C=C/c2ccc(OC)cc2)cc1` [Compound 1, 1,2-Bis((E)-3-(4-methoxyphenyl)allylidene)hydrazine], the IC50 in data set [1] (setting [3]) came to 58.5 µM. The compound further had a viability at 24 h, 20 µM in data set [2] of 90.3 ± 9.37%.
Consider `C/C(C=NN=C/C(C)=C/c1ccccc1)=C\c1ccccc1` [Compound 2, 1,2-Bis((E)-2-methyl-3-phenylallylidene)hydrazine], for which the IC50 in data set [1] (setting [3]) came to 50.1 µM. Also, in data set [2], the viability at 24 h, 20 µM came to 96.6 ± 1.75%.
In the same order, the values of `C(=NN=Cc1cnc2ccccc2c1)c1cnc2ccccc2c1` [Compound 4, 1,2-Bis(quinolin-3-ylmethylene)hydrazine] are greater than 500 µM and 91 ± 3.39%.
For the compound `O=[N+]([O-])c1ccccc1/C=C/C=NN=C/C=C/c1ccccc1[N+](=O)[O-]` [Compound 6, 1,2-Bis((E)-3-(2-nitrophenyl)allylidene)hydrazine], in data set [1] (BV-2, 24 h), the IC50 is 47.4 µM. This compound came in with a viability at 24 h, 20 µM in data set [2] of 87.9 ± 19.5%.
For the compound `Clc1ccc(/C=C/C=NN=C/C=C/c2ccc(Cl)cc2)cc1` [Compound 7, 1,2-Bis((E)-3-(4-chlorophenyl)allylidene)hydrazine], the IC50 in data set [1] (setting [3]) turned out to be 39.9 µM. In data set [2], this compound displayed a viability at 24 h, 20 µM of 77.2 ± 5.67%. The “Toxicity in BV-2 cells (discussion)” value in the data set with BV-2 cells is “high toxicity”.
In the same order, the values of `C(C=C(c1ccccc1)c1ccccc1)=NN=CC=C(c1ccccc1)c1ccccc1` [Compound 8, 1,2-Bis(3,3-diphenylallylidene)hydrazine] are 47.9 µM, 69.5 ± 3.25% and “high toxicity”.
For the compound `C(=NN=Cc1ccc(N(c2ccccc2)c2ccccc2)cc1)c1ccc(N(c2ccccc2)c2ccccc2)cc1` [Compound 9, 4,4′-Hydrazine-1,2-diylidenebis(methan-1-yl-1-ylidene)bis(N,N-diphenylaniline)], the IC50 in data set [1] (setting [3]) was 26.3 µM. This compound had a viability at 24 h, 20 µM in data set [2] of 83.5 ± 7.78%.
In the same order, the values of `[H]/N=C(/NC)NCCC[C@H](N)C(=O)O` [L-NMMA, L-NG-monomethylarginine, reference compound] are 18.3 µM and 100 ± 3.41%.
